According to paper PMC6250127 (Journal of medicinal chemistry, 2015):
Entries after “also recorded” stand apart in the source; their conditions may differ. Where two headings read alike, the source gives them in different places.

Tests used:
[1] = target: T1, rat D3 receptor (Rattus norvegicus, UniProt P19020); assay: [3H]spiroperidol competition binding, rat D3 receptor in HEK-293 cells; details: for D2L/D3: ratio of Ki values, selectivity for D3
[2] = target: human D3 receptor (Homo sapiens, UniProt P35462); assay: Stimulation of [35S]GTPγS binding, human D3 receptor in CHO cells; format: biochemical; details: for D2/D3: ratio of GTPγS EC50 values; for Emax: read-out: hCHO−D3 Emax, percent of Emax observed with 100 μM DA
human D3 receptor, sequence (P35462 whole entry): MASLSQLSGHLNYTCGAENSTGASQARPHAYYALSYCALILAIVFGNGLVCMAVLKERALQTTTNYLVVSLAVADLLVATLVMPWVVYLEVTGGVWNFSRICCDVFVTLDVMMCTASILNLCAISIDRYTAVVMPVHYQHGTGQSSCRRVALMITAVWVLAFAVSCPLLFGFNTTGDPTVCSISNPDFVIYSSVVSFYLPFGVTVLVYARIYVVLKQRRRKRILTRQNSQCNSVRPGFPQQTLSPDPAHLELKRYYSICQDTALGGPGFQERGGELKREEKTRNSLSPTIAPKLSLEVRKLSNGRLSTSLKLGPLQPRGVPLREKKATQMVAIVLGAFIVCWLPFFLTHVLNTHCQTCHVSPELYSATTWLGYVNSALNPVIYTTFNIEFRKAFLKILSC

[3] = system: reserpinized rats; assay: Reversal of reserpine-induced hypolocomotion in rats; format: in vivo, rat; details: for reversal of reserpine-induced hypolocomotion (locomotor activity): 10 μMol/kg ip, reserpine 5 mg/kg sc, 18 h pretreatment, rats; for duration of locomotor activation: 10 μMol/kg, reserpinized rats, locomotion monitored for 6 h
[4] = target: human D2 receptor (Homo sapiens, UniProt P14416); assay: Stimulation of [35S]GTPγS binding, human D2 receptor in CHO cells; format: biochemical; details: for hCHO−D2 Emax: percent of Emax observed with 1 mM DA; for Emax: read-out: hCHO−D2 Emax, percent of Emax observed with 1 mM DA
human D2 receptor, sequence (P14416 whole entry): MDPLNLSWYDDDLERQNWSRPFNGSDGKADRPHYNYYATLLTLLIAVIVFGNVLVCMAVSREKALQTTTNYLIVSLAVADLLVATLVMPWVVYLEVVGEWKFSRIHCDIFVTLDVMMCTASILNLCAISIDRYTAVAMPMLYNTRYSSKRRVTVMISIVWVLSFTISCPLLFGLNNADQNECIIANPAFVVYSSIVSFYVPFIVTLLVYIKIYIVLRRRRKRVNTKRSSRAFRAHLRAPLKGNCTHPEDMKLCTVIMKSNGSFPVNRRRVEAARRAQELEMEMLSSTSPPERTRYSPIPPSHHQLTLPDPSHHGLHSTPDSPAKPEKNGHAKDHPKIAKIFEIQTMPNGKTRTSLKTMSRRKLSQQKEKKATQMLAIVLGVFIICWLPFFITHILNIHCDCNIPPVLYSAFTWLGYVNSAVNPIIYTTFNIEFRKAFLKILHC

[5] = target: rat D2L receptor (Rattus norvegicus, UniProt P61169); assay: [3H]spiroperidol competition binding, rat D2L receptor in HEK-293 cells
rat D2L receptor, sequence (P61169 whole entry): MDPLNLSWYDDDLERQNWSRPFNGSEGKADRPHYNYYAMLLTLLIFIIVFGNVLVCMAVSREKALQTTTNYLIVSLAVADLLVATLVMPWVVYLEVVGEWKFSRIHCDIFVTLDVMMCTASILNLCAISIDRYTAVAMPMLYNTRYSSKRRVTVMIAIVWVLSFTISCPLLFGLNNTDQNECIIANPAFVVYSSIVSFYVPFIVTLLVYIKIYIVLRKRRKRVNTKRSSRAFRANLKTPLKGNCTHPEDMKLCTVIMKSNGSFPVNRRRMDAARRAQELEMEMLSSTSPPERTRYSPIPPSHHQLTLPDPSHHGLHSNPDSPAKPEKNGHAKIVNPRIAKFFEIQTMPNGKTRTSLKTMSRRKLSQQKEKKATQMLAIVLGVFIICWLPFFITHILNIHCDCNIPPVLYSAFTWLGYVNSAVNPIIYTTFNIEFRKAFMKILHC

[6] = target: T1, rat D3 receptor; details: ratio of Ki values; cited from earlier work
[7] = PC12 cell viability, direct effect of compound; details: rat
[8] = system: PC12 cells; assay: PC12 cell viability, direct effect of compound; details: PC12 cells, 0.01− 30 μM
[9] = system: PC12 cells; assay: Neuroprotection against 6-OHDA-induced toxicity in PC12 cells; details: 24 h pretreatment, then 75 μM 6-OHDA for 24 h

T1 sequence (P19020 whole entry): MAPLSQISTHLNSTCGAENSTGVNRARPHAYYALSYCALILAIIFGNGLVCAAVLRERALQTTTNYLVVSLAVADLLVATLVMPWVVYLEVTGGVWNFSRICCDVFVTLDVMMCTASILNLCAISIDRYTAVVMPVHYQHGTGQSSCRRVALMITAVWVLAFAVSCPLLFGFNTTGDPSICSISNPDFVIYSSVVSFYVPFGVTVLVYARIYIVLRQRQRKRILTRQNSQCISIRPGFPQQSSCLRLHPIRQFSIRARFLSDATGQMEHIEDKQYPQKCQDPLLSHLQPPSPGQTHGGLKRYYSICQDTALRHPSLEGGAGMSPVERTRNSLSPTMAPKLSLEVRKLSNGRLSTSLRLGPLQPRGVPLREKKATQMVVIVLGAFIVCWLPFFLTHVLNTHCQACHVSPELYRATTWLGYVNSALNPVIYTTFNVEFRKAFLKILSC

| SMILES | Ki [1] | D2L/D3 [1] | EC50 [2] | D2/D3 [2] | Emax [2] | reversal of reserpine-induced hypolocomotion (locomotor activity) [3] | EC50 [4] | hCHO−D2 Emax [4] | Ki [5] | Emax [4] | duration of locomotor activation [3] | other results |
| --- | --- | --- | --- | --- | --- | --- | --- | --- | --- | --- | --- | --- |
| C#CCN(CCN1CCN(c2ccc3[nH]ccc3c2Cl)CC1)[C@H]1CCc2nc(N)sc2C1 [(−)-34, (S)-N^6-(2-(4-(4-Chloro-1H-indol-5-yl)piperazin-1-yl)ethyl)-N^6-(prop-2-yn-1-yl)-4,5,6,7-tetrahydrobenzo[d]thiazole-2,6-diamine] | 14.4 ± 1 nM | 5.99 | 10.9 ± 2.4 nM | 1.98 | 94 ± 3.5% | able to elevate locomotor activity in the above PD animal model significantly; also recorded: locomotor activity was enhanced compared to control but was less than that observed with (−)-21a | 21.6 ± 9.6 nM | 26.7 ± 6.4% | 86.5 ± 15 nM |  |  |  |
| CCCN(CCN1CCN(C(=O)c2c[nH]c3ccccc23)CC1)C1CCc2nc(N)sc2C1 [D-443, (4-(2-((2-amino-4,5,6,7-tetrahydrobenzo[d]-thiazol-6-yl)(propyl)amino)ethyl)-piperazin-1-yl)(1H-indol-3-yl)methanone] |  |  |  |  |  |  |  |  |  |  |  | D2L/D3 [6]: 360 |
| NCCc1cc(O)c(O)cc1O [6-OHDA, 6-hydroxydopamine, reference compound] |  |  |  |  |  |  |  |  |  |  |  | viability at 24 h, 75 μM [7]: ~50% |
| C#CCN(CCN1CCN(c2ccc3cc[nH]c3c2Cl)CC1)[C@H]1CCc2nc(N)sc2C1 [(−)-36, (S)-N^6-(2-(4-(7-Chloro-1H-indol-6-yl)piperazin-1-yl)ethyl)-N^6-(prop-2-yn-1-yl)-4,5,6,7-tetrahydrobenzo[d]thiazole-2,6-diamine] | 0.145 ± 0.035 nM | 1186 | 0.84 ± 0.05 nM | 46.9 | ~100% |  | 39.4 ± 6.3 nM | 86.8 ± 3.8% | 172 ± 16 nM | ~100% |  | hCHO−D3 Emax ([2]; percent of Emax observed with 100 μM DA): 93.4 ± 3.6% |
| CCCN(CCC)CCc1cccc2c1CC(=O)N2 [ropinirole, reference compound] |  |  |  |  |  | quick onset of locomotor activation compared to control |  |  |  |  | much shorter duration of action compared with (−)-21a |  |
| CCCN(CCN1CCN(c2ccc3cc[nH]c3c2Cl)CC1)[C@H]1CCc2nc(N)sc2C1.O=C(O)C(F)(F)F [(−)-21a, (S)-N^6-(2-(4-(7-Chloro-1H-indol-6-yl)piperazin-1-yl)ethyl)-N^6-propyl-4,5,6,7-tetrahydrobenzo[d]thiazole-2,6-diamine] |  |  |  |  | > 100% | highly effcacious in reversing hypolocomotion; also recorded: highly efficacious in reversing akinesia in rats |  |  |  | > 100% | long duration of action; also recorded: significant enhancement of locomotion for the entire duration of the study of 6 h | effect of compound alone on cell viability [8]: no cell loss at all; neuroprotective effect against 6-OHDA-induced toxicity [9]: neuroprotective; also recorded: dose-dependently protected the cells from the neurotoxic insult |
